Test: release of the active compound from intramuscular suspensions
Details: oily suspensions, water-soluble form (hydrochlorides, lactates, mesilates and other salts), particularly with interfacially surface active materials

O=C(O)c1cn(C2CC2)c2cc(N3CCNCC3)c(F)cc2c1=O [ciprofloxacin]
release of the active compound: very rapidly

From patent publication US5023257A, “Intramuscular injection forms of gyrase inhibitors” (Bayer Aktiengesellschaft, priority 1988, dated 1991)
